A short description of series [1]: Clearance in dog liver microsomes. In kind it is ADME, Canis lupus familiaris, Microsome. For orientation: Liver microsomes are vesicles of endoplasmic reticulum, rich in cytochrome P450 enzymes.
The nature of series [2]: Clearance in rat liver microsomes. Type of series: ADME, Microsome.
Series [3] in a line: Aqueous solubility at pH 1. Type of series: physicochemical.
Series [4] in a line: Aqueous solubility at pH 6.5. In kind it is physicochemical.
Another series has as its system Calu-6. Kind of series: Inhibition of hedgehog pathway in human Calu6 cells xenografted in nude mouse assessed as decrease in Gli transcription at 75 mg/kg, po bid measured after 4 hrs post fifth dose. Type of series: functional, organism-based. Set-up: dose 75 mg/kg. For orientation: A xenograft is tissue or cells of one species grown in another, often human tumour cells in immunodeficient mice.

Series [5] is described as follows: Plasma concentration in human Calu6 cells xenografted in nude mouse at 75 mg/kg, po bid measured after 4 hrs post fifth dose. In kind it is ADME, organism-based, Calu-6. The arrangement: dose 75 mg/kg, route oral.
Series [6] can be described thus: (§1) Fraction unbound in human Calu6 cells xenografted in nude mouse plasma at 75 mg/kg, po bid measured after 4 hrs post fifth dose. The arrangement: dose 75 mg/kg, route oral. Type of series: ADME, organism-based, Calu-6. The following applies: nude, plasma.
The next series concerns the target Cytochrome P450 2C9 (Homo sapiens, UniProt P11712). Kind of series: Inhibition of CYP2C9. In kind it is ADME.
For another series, the system named is Plasma. The description is as §1. In kind it is ADME, organism-based, Calu-6. The arrangement: dose 75 mg/kg, route oral. The following applies: in vivo, 4 h.

Converted amounts (≈) assume the structure as drawn. The source made the active and inactive calls. No cut-off for these calls is given here.

Sequence of Cytochrome P450 2C9 (P11712 whole entry): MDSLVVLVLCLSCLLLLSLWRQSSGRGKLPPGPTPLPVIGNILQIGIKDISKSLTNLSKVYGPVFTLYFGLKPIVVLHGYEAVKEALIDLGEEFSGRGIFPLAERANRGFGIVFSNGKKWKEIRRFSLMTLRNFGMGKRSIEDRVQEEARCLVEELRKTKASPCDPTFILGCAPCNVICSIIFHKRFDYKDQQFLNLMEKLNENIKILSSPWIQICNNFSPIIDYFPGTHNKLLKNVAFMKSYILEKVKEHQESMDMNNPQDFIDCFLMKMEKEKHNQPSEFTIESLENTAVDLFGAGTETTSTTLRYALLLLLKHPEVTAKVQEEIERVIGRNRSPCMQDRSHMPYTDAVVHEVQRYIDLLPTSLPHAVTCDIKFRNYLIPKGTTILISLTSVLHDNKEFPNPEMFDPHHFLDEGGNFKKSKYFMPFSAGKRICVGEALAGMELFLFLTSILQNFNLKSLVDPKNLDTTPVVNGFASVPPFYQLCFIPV

On to `Cc1nc(C(F)(F)F)ccc1C(=O)Nc1ccc(Cl)c(-c2cnc3ccccc3n2)c1`, for which the CLint scaled (in general, the rate of metabolic loss divided by the concentration) stood at 7.4 mL/min/kg in series [1] and 10.7 mL/min/kg in series [2]. Besides, the solubility in series [3] and in series [4] was 0.1 µg/mL (≈ 0.226 µM) in each case.

Consider `CS(=O)(=O)c1ccc(C(=O)Nc2ccc(Cl)c(-c3ccccn3)c2)cc1`, for which the CLint scaled in [1] came out at 1.4 mL/min/kg; in series [2] it was 1.2 mL/min/kg. The outcome in the series on Calu-6 was inactive. Moreover, the solubility (in general, the dissolved amount per volume that the medium holds) in [3] is 420 µg/mL (≈ 1090 µM); in [4], 0.5 µg/mL (≈ 1.29 µM). Further, the concentration at 4 h in series [5] worked out at 14 µM. Besides, the fraction unbound (in general, the share of the substance not bound to proteins or other matrix) at 4 h in series [6] worked out at 0.03.

For `Cc1nc(C(F)(F)F)ccc1C(=O)Nc1ccc(Cl)c(-n2cc3ccccc3n2)c1`, the CLint scaled in series [2] was 99.3 mL/min/kg.

In the case of `Cc1nc(C(F)(F)F)ccc1C(=O)Nc1ccc(Cl)c(-c2nc3ccccc3n2C)c1`, at Cytochrome P450 2C9, half-maximal inhibition (IC50) was put at 2500 nM.

In the case of `CS(=O)(=O)c1ccc(C(=O)Nc2ccc(Cl)c(-c3ccccn3)c2)c(Cl)c1` [VISMODEGIB], the CLint scaled worked out at 0.4 mL/min/kg in series [1] and 3.7 mL/min/kg in [2]. For the same compound, the values for the solubility in series [3] and in series [4] were more than 3000 µg/mL and 9.5 µg/mL (≈ 22.5 µM), respectively. Besides, in [5], the concentration at 4 h is 23 µM. This compound also registered a Fu in the series with Plasma of 9%.

As to `Cc1nc(C(F)(F)F)ccc1C(=O)Nc1ccc(Cl)c(-c2ccccn2)c1`, the CLint scaled in series [1] stood at 1.9 mL/min/kg; in series [2], 4.5 mL/min/kg. In addition, in the series with Calu-6, the result was inactive. The figures for the solubility in series [3] and in series [4] were 1000 µg/mL (≈ 2550 µM) and 1.8 µg/mL (≈ 4.59 µM), respectively. For the same compound, the concentration at 4 h in series [5] worked out at 0.86 µM.

In the case of `Cc1nc(C(F)(F)F)ccc1C(=O)Nc1ccc(Cl)c(-c2nc3ccccc3[nH]2)c1`, the figures for the CLint scaled in series [1] and in series [2] were 124 mL/min/kg and 3 mL/min/kg, respectively. In addition, the solubility is 300 µg/mL (≈ 696 µM) in series [3] and 0.3 µg/mL (≈ 0.696 µM) in [4].
